The subject of one data set is CD2F1 male mice. The data set can be described thus: In vivo radioprotective effects: 30-day survival after Cobalt-60 gamma irradiation. The settings on record: 24 h before 9.2 Gy. Here is the method: (§1) CD2F1 male mice (N=16) were subcutaneously (sc) injected with a single dose of two different conjugates. For one protective drug conjugate (Conjugate 1), the tested doses were 200, 400, and 800 mg/kg. The structure of Conjugate 1 included amifostine as the protective drug, alendronate as the bone-targeting ligand, and a protease-cleavable peptide having the sequence of CKPLGLWAL (SEQ ID NO: 33) with acetylation at the N-terminus (e.g., AcCKPLGLWAL; SEQ ID NO: 74). […] The irradiated mice were monitored for survival for 30 days post-irradiation. […] For the vehicle control group, the mortalities of mice occurred during 8 to 17 days post-irradiation, and the final survival rate was 6.25% (1 out of 16 survived), indicating significant mortality by gamma-irradiation.
For another protective drug conjugate (Conjugate 2), the tested doses were 250, 500, 600, and 700 mg/kg, and the irradiation was conducted at 24 h post-drug administration. The structure of Conjugate 2 included amifostine as the protective drug, alendronate as the bone-targeting ligand, and a protease-cleavable peptide having the sequence of CPLGLYAL (SEQ ID NO: 29) with acetylation at the N-terminus (e.g., AcCPLGLYAL; SEQ ID NO: 76).
as §1, with “a” for “two different conjugates. For one”, “1), and” for “1),”, “250, 300,” for “200, 400,”, “350” for “800”, “0% (0” for “6.25% (1”
as §1, with “CD2F1 male mice (N=16) were subcutaneously (sc) injected CD2F1” for “CD2F1”, “a” for “two different conjugates. For one”, “1), and” for “1),”, “250, 300,” for “200, 400,”, “350” for “800”
CD2F1 male mice (N=16) were subcutaneously (sc) injected CD2F1 male mice (N=16) were subcutaneously (sc) injected with a single dose of a protective drug conjugate (Conjugate 1), and the tested doses were 50, 100, and 200 mg/kg. The structure of Conjugate 1 included amifostine as the protective drug, alendronate as the bone-targeting ligand, and a protease-cleavable peptide having the sequence of CKPLGLWAL (SEQ ID NO: 33) with acetylation at the N-terminus (e.g., AcCKPLGLWAL; SEQ ID NO: 74). […] The irradiated mice were monitored for survival for […] post-irradiation. […] For the vehicle control group, the mortalities of mice occurred during 8 to 17 days post-irradiation, and the final survival rate was 0% (0 out of 16 survived), indicating significant mortality by gamma-irradiation.
CD2F1 male mice (N=16) were subcutaneously (sc) injected CD2F1 male mice (N=16) were subcutaneously (sc) injected with a single dose of a protective drug conjugate, i.e., Conjugate 3. The tested doses were 250, 300, and 350 mg/kg. […]

In data set [1] the target is matrix metalloproteinase 9 (MMP9) (Homo sapiens, UniProt P14780). The data set can be described thus: In vitro matrix metalloproteinase-based conjugate cleavage. The format is biochemical. The following applies: isolated enzyme, MMP9, 37° C., up to 20 h, read-out: T1/2 of cleavage (converted). Here is the method:
In this exemplary representative cleavage experiment, a 90 μL stock solution of protective drug conjugate (1 mg/mL) was mixed with 2 μL of matrix metalloproteinase 9 (MMP9) (10 unit/μL) and 8.2 μL of 50 mM CaCl2 solution, followed by incubation at 37° C. for up to 20 h. A 10 μL sample was taken at 0.3, 1, 2, 4, 9, or 20 h for the HPLC analysis. Three conjugates having different peptide sequences (Conjugates 1-3) were used in this test: Conjugate 1-peptide sequence of CPLSLYAL (SEQ ID NO: 65); Conjugate 2-peptide sequence of CPLSLYSL (SEQ ID NO: 66); and Conjugate 3-peptide sequence of CPLGLAL (SEQ ID NO: 67). The concentrations of the conjugate residual in samples were normalized and presented as cleavage ratios.

A short description of data set [2]: Conjugate cleavage in fresh bone marrow aspirate (HPLC). The format is in vitro ADME. The following applies: fresh bone marrow aspirate; human bone marrow aspirate, same donor, 37° C., up to 6 h; read-out: time to reach 50% conjugate cleavage (converted). Here is the method: The proteolytic cleavage of conjugates determines the therapeutic window, which is controlled by the specific peptide sequence. In a representative cleavage experiment, a […] stock solution of a conjugate (30 mg/mL) was mixed with 90 μL of fresh bone marrow aspirate, followed by incubation at 37° C. for up to 6 h. A 10 μL sample was taken every hour, diluted in 90 μL acetonitrile to precipitate proteins and extract conjugates and cleavage products. The concentrations of the conjugates in samples were determined by HPLC, normalized, and presented as the cleavage ratio.

One compound from patent publication US20250127799A1, “DRUG CONJUGATES FOR BONE MARROW PROTECTION” (priority 2023, published 2025) can be followed below.

Peptide text beside a SMILES is read from it. * marks the point of attachment. X1 = O=C(CCCCCN1C(=O)CC(*)C1=O)NCCCC(O)(P(=O)(O)O)P(=O)(O)O; X2 = O=P(O)(O)SCCNCCCN*

Chain of matrix metalloproteinase 9 (MMP9) (P14780 94-707, species assumed): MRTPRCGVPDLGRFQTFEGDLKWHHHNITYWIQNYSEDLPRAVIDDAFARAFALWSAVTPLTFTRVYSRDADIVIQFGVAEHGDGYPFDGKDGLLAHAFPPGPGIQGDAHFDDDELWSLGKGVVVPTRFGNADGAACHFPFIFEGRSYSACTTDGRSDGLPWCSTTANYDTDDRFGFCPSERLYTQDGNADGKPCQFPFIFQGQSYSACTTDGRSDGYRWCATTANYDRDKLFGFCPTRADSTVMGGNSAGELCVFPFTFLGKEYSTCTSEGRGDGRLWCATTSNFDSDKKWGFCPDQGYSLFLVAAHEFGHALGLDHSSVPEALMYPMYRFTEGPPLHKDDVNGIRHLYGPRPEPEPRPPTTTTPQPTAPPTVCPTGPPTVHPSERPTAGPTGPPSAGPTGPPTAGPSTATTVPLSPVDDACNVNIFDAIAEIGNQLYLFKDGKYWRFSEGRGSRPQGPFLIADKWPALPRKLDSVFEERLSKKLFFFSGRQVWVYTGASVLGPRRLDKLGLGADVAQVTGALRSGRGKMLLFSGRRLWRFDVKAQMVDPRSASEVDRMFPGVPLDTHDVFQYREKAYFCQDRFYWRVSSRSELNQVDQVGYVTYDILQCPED

For the compound `CC(=O)N[C@@H](CSC1CC(=O)N(CCCCCC(=O)NCCCC(O)(P(=O)(O)O)P(=O)(O)O)C1=O)C(=O)N1CCC[C@H]1C(=O)N[C@@H](CC(C)C)C(=O)NCC(=O)N[C@@H](CC(C)C)C(=O)N[C@@H](Cc1ccc(O)cc1)C(=O)N[C@@H](C)C(=O)N[C@@H](CC(C)C)C(=O)NCCCNCCSP(=O)(O)O` (stereo partly drawn) [Conjugate 2] (Ac-C(X1)PLGLYAL-X2), the 30-day survival rate with CD2F1 male mice (250 mg/kg sc) was 68.75%; in the data set with CD2F1 male mice (500 mg/kg sc) it was 75%; in the data set on CD2F1 male mice (600 mg/kg sc) it was 93.75%; in the data set on CD2F1 male mice (700 mg/kg sc), 100%. Moreover, the half-life at 0.898 mg/mL in data set [1] was approximately 7.5 h. Moreover, in data set [2], the half-life at 3 mg/mL was 4.2 h.
